Reference: patent US20220381657A1, “METHOD FOR PREPARING BIOLOGICAL MATERIAL HAVING EXCELLENT LIGHT-TRANSMITTING PROPERTY” (RIKEN, priority 2016, published 2022)
“Also recorded” adds a separate entry of the source. Counter-ions that a name gives are not always drawn. Like-named read-outs stand apart in the source and are kept apart here.

Tests used:
[1] = 1st RI evaluation assay: refractive index at 589 nm of 10 wt % aqueous solution; format: physicochemical; settings: Table 3
Source text: (§1) The refractive index of an aqueous solution is commonly known to increase in a solute concentration-dependent manner, and the refractive index of a reagent per unit weight of the reagent varies among individual reagents. Accordingly, two properties are required in order to prepare a high refractive index aqueous solution: (1) an extremely high water-solubility and (2) a […] which allows achieving a high refractive index in a low-concentration aqueous solution.

[2] = for 400 nm: OD at 400 nm of the chemical
EGFP = EGFP (Aequorea victoria, UniProt P42212, F64L/H231L/S65T); format: biochemical; settings: for 2nd quenching assay EGFP fluorescence: Table 3; for retention of fluorescence of a fluorescent protein: stated in the description
Procedure: (FIG. 7). […] A mouse hemisphere was treated with use of each 10 wt % chemical solution at 37° C. for 3 days, and was washed with PBS. Subsequently, the mouse hemisphere was subjected to refractive index adjustment with CUBIC-2A.

bovine coagulated blood = assay: Decoloring screening: heme eluted from bovine coagulated blood (OD420-OD700); settings: decolorization; for 700 nm calibrated 420 nm Average: OD420 calibrated by OD700; for integrated value 500-700 nm Average: integrated absorbance 500-700 nm
[3] = Refractive index of high-concentration aqueous solution; format: physicochemical
Source text: as §1

mouse spleen = assay: Decoloring of mouse spleen (OD420 of supernatant, transmissive image); settings: 10 wt % solution, 37° C. overnight
[4] = system: fixed brain tissue suspension; assay: 1st delipidation assay: solubilization of fixed brain tissue suspension, turbidity at 600 nm; set-up: species or system mice; settings: Table 1; 10 wt % chemical, fixed mouse brain suspension, 37° C. overnight; PBS = 1.000
Procedure: Specifically, brains taken out of mice were sheared with a utility knife and then were disrupted by ultrasonication. To each of the resultant suspensions, an equal volume of 8% PFA solution was added to perform fixation at 4° C. for 1 hour. The resultant mixture was centrifuged to remove the supernatant, and the fixed brain tissue was washed with PBS for 3 times. PBS was added so as to obtain 2 mL of a fixed brain tissue suspension per brain. The fixed brain tissue suspension was diluted by 3.5 folds. To 20 μL of the resultant suspension, 130 μL of each 10 wt % chemical was added and was shaken at 37° C. overnight. Thus obtained mixed solutions were subjected to absorbance (turbidity) measurement at 600 nm. It is expected that a chemical solution which reduces the turbidity of a fixed brain suspension allows reducing light scattering by solubilizing lipids, which act as a scattering factor, in the brain tissue.

mouse hemisphere = assay: Delipidation and clearing of mouse hemisphere (transmittance, phospholipid and cholesterol content)
Procedure: Subsequently, the delipidation efficiency of the series of compounds in mammalian tissue was examined. […] The transmittance of the brain tissue was measured, and then the brain tissue was washed with PBS and was disrupted. […] It was thus shown that the above basic chemicals and some neutral chemicals were better than the detergents from the viewpoint of permeability with respect to tissue. […] Subsequently, the mouse hemisphere was subjected to refractive index adjustment with CUBIC-2A. […] Accordingly, #0414 (N-butyldiethanolamine) was selected as a highly-efficient delipidation chemical.

mouse brain = assay: Swelling and clearing of delipidated mouse brain; settings: CUBIC-1 delipidated brain, shaken 3 days
[5] = Table 3, chemical conc. 70 wt %

In the case of `CNC(=S)NC` [#0637, 1,3-Dimethyl-thiourea], the “1st RI evaluation assay RI of 10% chemical” value [1] is reported as 1.3555, the OD400 ([2]; Table 3) is reported as 0.049 and the pH (Table 3) is reported as 6.8.

For `CN(C)C(=O)c1ccccc1` [#0788, N,N- Dimethyl- benzamide], the “2nd quenching assay EGFP fluorescence” value (EGFP) was “quench free”, the “retention of fluorescence of a fluorescent protein” value (from here on “retention”) (EGFP) was “allowing retention of fluorescence of a fluorescent protein” and the “700 nm calibrated 420 nm Average” value (bovine coagulated blood) was 1.26. For the same compound, the “integrated value 500-700 nm Average” value (bovine coagulated blood) was 1.08, the RI [3, 5] was 1.4833 and the “Fluorescence quench Average” value (Serius; relative fluorescence) was 0.76. It also gave a 400 nm [2] of 0.049, an OD400 ([2]; Table 3) of 0.049 and a pH (Table 3) of 10.7. For the same compound, the pH ([…]) was 10.7.

In the case of `OCCNCc1ccccc1` [#0389, N-Benzyl- ethanolamine], the “2nd quenching assay EGFP fluorescence” value (EGFP) is reported as “quench free”, the “retention” value (EGFP) is reported as “allowing retention of fluorescence of a fluorescent protein” and the “700 nm calibrated 420 nm Average” value (bovine coagulated blood) is reported as 2.73. The “integrated value 500-700 nm Average” value (bovine coagulated blood) was 2.42, the RI [3, 5] was 1.4814 and the “Fluorescence quench Average” value (Serius; relative fluorescence) was 0.57. It also gave a 400 nm [2] of 0.063, an OD400 ([2]; Table 3) of 0.063 and a pH (Table 3) of 10.9. For the same compound, the pH ([…]) was 10.9.

With `Cn1ccnc1` [1-methylimidazole] the “mouse spleen decoloring activity” value (mouse spleen) was “equivalent decoloring activity”.

For `CCCCN(CCO)CCO` [#0414, N-Butyldiethanolamine], the “1st delipidation assay Relative OD600” value [4] was 0.261, the organ transparency (mouse hemisphere; #0414 versus #0389, basic chemicals) was “superiority” and the “700 nm calibrated 420 nm Average” value (bovine coagulated blood) was 1.30. For the same compound, the “integrated value 500-700 nm Average” value (bovine coagulated blood) was 1.45, the “Fluorescence quench Average” value (Serius; relative fluorescence) was 0.70 and the 400 nm [2] was 0.05. For the same compound, the OD400 ([2]; Table 1) was 0.05, the pH (Table 1) was 12.7 and the pH ([…]) was 12.7.

For `Cc1cc(=O)n(-c2ccccc2)n1C` [#0640, 2,3-Dimethyl-1-phenyl-5-pyrazolone], the “2nd quenching assay EGFP fluorescence” value (EGFP) was “quench free”, the “retention” value (EGFP) was “allowing retention of fluorescence of a fluorescent protein” and the “700 nm calibrated 420 nm Average” value (bovine coagulated blood) was 1.22. For the same compound, the “integrated value 500-700 nm Average” value (bovine coagulated blood) was 0.93, the RI [3] was 1.4966 and the “Fluorescence quench Average” value (Serius) was 0.84.

For `NCCCNCCCN` [#0785, 3,3′-Diamino-dipropylamine], the “700 nm calibrated 420 nm Average” value (bovine coagulated blood) was 2.09, the “integrated value 500-700 nm Average” value (bovine coagulated blood) was 1.48 and the RI ([3]; Table 3, chemical conc. 100 wt %) was 1.4895. The “Fluorescence quench Average” value (Serius) was 0.62.

In the case of `CCn1ccnc1` [#0938, 1-ethylimidazole], the “retention” value (EGFP) is reported as “allows fluorescence of a fluorescent protein to be retained”, the “700 nm calibrated 420 nm Average” value (bovine coagulated blood) is reported as 6.19 and the “integrated value 500-700 nm Average” value (bovine coagulated blood) is reported as 3.41. For the same compound, the “mouse spleen decoloring activity” value (mouse spleen) was “highest”, the “Fluorescence quench Average” value (Serius; relative fluorescence) was 0.80 and the 400 nm [2] was 0.053. For the same compound, the pH ([…]) was 12.1.

With “Decyldimethyl(3- sulfopropyl)ammonium [#0651]” the “retention” value (EGFP) was “allows fluorescence of a fluorescent protein to be retained”, the “700 nm calibrated 420 nm Average” value (bovine coagulated blood) was 3.73 and the “integrated value 500-700 nm Average” value (bovine coagulated blood) was 3.28. The “Fluorescence quench Average” value (Serius; relative fluorescence) was 0.97, the 400 nm [2] was 0.048 and the OD400 ([2]; Table 1) was 0.048. For the same compound, the pH (Table 1) was 7.5 and the pH ([…]) was 7.5.

With `NCc1cccnc1` [#1102, 3-Picolylamine] the “700 nm calibrated 420 nm Average” value (bovine coagulated blood) was 2.46, the “integrated value 500-700 nm Average” value (bovine coagulated blood) was 1.32 and the RI [3, 5] was 1.4895. For the same compound, the “Fluorescence quench Average” value (Serius; relative fluorescence) was 0.77, the 400 nm [2] was 0.056 and the OD400 ([2]; Table 3) was 0.056. For the same compound, the pH (Table 3) was 11.6 and the pH ([…]) was 11.6.

With `CNC(=O)c1cccnc1` [#1283, N-Methyl- nicotinamide] the “2nd quenching assay EGFP fluorescence” value (EGFP) was “quench free”, the “retention” value (EGFP) was “allowing retention of fluorescence of a fluorescent protein; also recorded: allows fluorescence of a fluorescent protein to be retained” and the “700 nm calibrated 420 nm Average” value (bovine coagulated blood) was 2.98. For the same compound, the “integrated value 500-700 nm Average” value (bovine coagulated blood) was 2.81, the RI [3, 5] was 1.4902 and the “Fluorescence quench Average” value (Serius; relative fluorescence) was 0.71. It also gave a 400 nm [2] of 0.063, an OD400 ([2]; Table 3) of 0.063 and a pH (Table 3) of 10.7. The pH ([…]) was 10.7.

For `CCCCC(O)CO` (stereo not shown) [#1051, 1,2-Hexanediol], the “1st delipidation assay Relative OD600” value [4] was 0.300, the “degree of delipidation and clearing of mouse hemisphere” value (mouse hemisphere; 10 wt % chemical, 37° C., 3 days, then CUBIC-2A, compared with detergents #1035, #1455, #1460, Triton X-100) was “higher degrees of delipidation and clearing” and the OD400 ([2]; Table 1) was 0.048. For the same compound, the pH (Table 1) was 9.3.

With `CN(C)C(=O)Oc1cccc([N+](C)(C)C)c1` [#0864, Neostigmine bromide] the “2nd quenching assay EGFP fluorescence” value (EGFP) was “quench free”, the “retention” value (EGFP) was “allowing retention of fluorescence of a fluorescent protein” and the RI [3, 5] was 1.4830.

`Cc1cc[n+]([O-])cc1` [#1145, 4- Methylpyridine N-oxide] gave an RI [3, 5] of 1.5073, an OD400 ([2]; Table 3) of 0.059 and a pH (Table 3) of 7.3.

In the case of `CCCCCCCCCCCC[n+]1ccccc1.[Cl-]` [#0635, 1-Dodecylpyridinium chloride], the “retention” value (EGFP) is reported as “allows fluorescence of a fluorescent protein to be retained”, the “700 nm calibrated 420 nm Average” value (bovine coagulated blood) is reported as 3.86 and the “integrated value 500-700 nm Average” value (bovine coagulated blood) is reported as 3.57. For the same compound, the “Fluorescence quench Average” value (Serius; relative fluorescence) was 1.04, the 400 nm [2] was 0.053 and the OD400 ([2]; Table 1) was 0.053. It also gave a pH (Table 1) of 8.9 and a pH ([…]) of 8.9.

In the case of `c1c[nH]cn1` [#1352, imidazole], the “swelling of delipidated mouse brain” value (mouse brain) is reported as “high-degree of swelling”.

In the case of `C[N+](C)(Cc1ccccc1)c1ccccc1.[Cl-]` [#0450, Benzyl- dimethyl- phenyl- ammonium chloride], the “2nd quenching assay EGFP fluorescence” value (EGFP) is reported as “quench free”, the “retention” value (EGFP) is reported as “allowing retention of fluorescence of a fluorescent protein” and the RI [3, 5] is reported as 1.5002. For the same compound, the OD400 ([2]; Table 3) was 0.052 and the pH (Table 3) was 6.7.

With `CN(C)CCSC(=N)N` [#0830, S-[2-(Dimethyl-amino)ethyl] isothiourea-dihydrochloride] the RI [3, 5] was 1.5021, the OD400 ([2]; Table 3) was 0.047 and the pH (Table 3) was 5.4.

With `NCCCn1ccnc1` [#0484, 1-(3-aminopropyl)imidazole] the “retention” value (EGFP) was “allows fluorescence of a fluorescent protein to be retained”, the “700 nm calibrated 420 nm Average” value (bovine coagulated blood) was 4.81 and the “integrated value 500-700 nm Average” value (bovine coagulated blood) was 2.64. For the same compound, the “Fluorescence quench Average” value (Serius; relative fluorescence) was 0.72, the 400 nm [2] was 0.05 and the pH ([…]) was 12.9.
